Test results taken from PubChem BioAssay (NCI).
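Growth conditions: 96-well plates. Treatment: test compound, 48 hours, 5 concentrations. Analysis: linear interpolation between bracketing concentrations; unreached endpoints set to highest concentration. GI50 is the concentration that inhibits growth by half. TGI denotes the concentration required for complete inhibition of growth.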

Assays:
Experiment in all cases: NCI tumour cell line growth inhibition, 48 h
NCI-H23 lung = system: NCI-H23 lung
786-0 renal = system: 786-0 renal
TK-10 renal = system: TK-10 renal
KM20L2 colon = system: KM20L2 colon
HT29 colon = system: HT29 colon
ACHN renal = system: ACHN renal
NCI-H460 lung = system: NCI-H460 lung
BT-549 breast = system: BT-549 breast
MDA-MB-435 = system: MDA-MB-435
MDA-N = system: MDA-N

SMILES	TGI (NCI-H23 lung) [µM]	TGI (786-0 renal) [µM]	TGI (TK-10 renal) [µM]	TGI (KM20L2 colon) [µM]	TGI (HT29 colon) [µM]	TGI (ACHN renal) [µM]	TGI (NCI-H460 lung) [µM]	GI50 (NCI-H23 lung) [µM]	GI50 (786-0 renal) [µM]	GI50 (TK-10 renal) [µM]	GI50 (KM20L2 colon) [µM]	GI50 (HT29 colon) [µM]	GI50 (ACHN renal) [µM]	GI50 (NCI-H460 lung) [µM]	TGI (BT-549 breast) [µM]	TGI (MDA-MB-435) [µM]	TGI (MDA-N) [µM]
CC(Nc1ccc(S(=O)(=O)N=C(N)N)cc1)c1c2ccccc2nc2ccccc12 (configuration not stated)	88.9	> 100	> 100	> 100	> 100	> 100	83.8										
O=c1ncc(F)cn1C1OC(CO)C(O)C1O (configuration not stated)	> 100	> 100	> 100	> 70.6	> 73.3	> 100	> 73										
COC(=O)C(C(=O)OC)C1CCCC(=O)C1 (configuration not stated)	> 100	> 100	> 100	> 100	> 100	> 100	> 100										
COC(=O)C(C(=O)C(=O)Nc1ccc([N+](=O)[O-])cc1[N+](=O)[O-])c1nc2ccc(Cl)cc2[nH]c1=O (configuration not stated)	> 100	> 100	> 100	> 100	> 100	> 100	> 100										
CN1C(=O)C2C3C=C4c5ccccc5N(c5ccccc5)C4(C2C1=O)[C@H]1C(=O)N(C)C(=O)[C@@H]31 (some centres not stated)	> 100	> 100	> 100	> 100	> 100	> 100	> 100										
Cc1ccc(S(=O)(=O)NC2(C=O)CCCC3CCCCC32)cc1 (configuration not stated)		> 100	> 100	> 100		> 100	> 100										
NC(=O)/N=C1/CCC2C3CCCC2C13	> 100	> 100	> 100	> 100	> 100	> 100	> 100										
CCC[CH2][Sn]1([CH2]CCC)[O]CC(CN(C)Cc2ccccc2)[O]1 (configuration not stated)	14.5	16.4	11.4	26	34.3	23.3	30.3	3.18	4.41	3.63	12	15.2	11.2	16.4			
Cn1cnc([N+](=O)[O-])c1Sc1nccn1-c1cccc2ccccc12	50.6	> 100	> 100	> 100	88.1	94.2	73.1										
Cc1cccc(C(C)(C)C)c1NC(=O)CC1C(=O)Nc2ccccc2S1(=O)=O (configuration not stated)	18.9	21.5	42	22.3	16.3	22.7	24.1										
Cc1cccc(C)c1NC(=O)C1C(=O)N(c2c(C)cccc2C)C(=O)/C1=N\N (configuration not stated)	> 100	> 100	> 100	> 100	> 100	> 100											
CC(=O)C1C(c2ccc(N(C)C)cc2)c2cc3c(cc2OC1(C)O)OCO3 (configuration not stated)	> 100	> 100	> 100	26.6	58.5	> 100	> 100										
Oc1ccc2ccccc2c1N=Nc1ccsc1	> 100	> 100	> 100	> 100	> 100	> 100	> 100										
CC12CCC3(OCCO3)C(OC(=O)c3ccccc3)=C1CCC21OCCO1 (configuration not stated)		> 100	> 100	> 100	> 100	> 100	> 100										
Cc1ccc(NC(=O)CC2Sc3ccccc3NC2=O)c(C)c1 (configuration not stated)	33.7	26.5	50.9	30.5		41	32.4										
Cn1cnc([N+](=O)[O-])c1Sc1nc(N)nc2c1ncn2C1CC(O)C(CO)O1 (configuration not stated)	> 55	> 100	> 100		> 100	> 92.8	> 40								> 100	> 58.8	> 100
C/C(CC(=O)Nc1ccc(C)c(C)c1)=N\NC(N)=O	> 100	> 100	> 100	> 100	> 100	> 100	> 100										
NCC1OC(n2cnc3c(N)ncnc32)CC1O (configuration not stated)	> 100	> 100	> 100		> 100	> 100	> 100								> 100	> 100	> 100
COc1c2ccoc2c(OC)c2oc(=O)ccc12	> 100	> 100	> 100		> 100	> 100	> 100								> 100	> 100	> 100
O=[P+](O)c1ccsc1	> 100	> 100	> 100	> 100	> 100	> 100	> 100										
O=c1c(Br)cc2nc3ccccc3sc-2c1Br	> 100	30.8	> 100	> 100	> 100	> 100	> 100										
O=C(O)CCC(N=Cc1nc(-c2ccccc2)oc1O)C(=O)O (configuration not stated)	> 100	> 100	> 100	> 100	> 100	> 100	> 100										
